Reference: patent US7683168B2, “Compositions of novel opioid compounds and method of use thereof” (priority 2005, dated 2010)

Assays:
[1] = molecular target: T1, human delta receptor (Homo sapiens, UniProt P41143); assay: radioligand binding, human delta receptor, HEK-293 cell membranes; conditions: cell not marked (rat), species not given, read-out: δ
T1 construct: purchased Perkin Elmer, Boston, Mass; 6110549; host or cells: HEK-293 cells

[2] = molecular target: T2, human mu opioid receptor (Homo sapiens, UniProt P35372); assay: radioligand binding, human mu opioid receptor, CHO cell membranes; conditions: species not given, read-out: μ
T2 construct: purchased Perkin Elmer, Boston, Mass; 6110535; host or cells: CHO cells
T2 sequence (P35372 whole entry): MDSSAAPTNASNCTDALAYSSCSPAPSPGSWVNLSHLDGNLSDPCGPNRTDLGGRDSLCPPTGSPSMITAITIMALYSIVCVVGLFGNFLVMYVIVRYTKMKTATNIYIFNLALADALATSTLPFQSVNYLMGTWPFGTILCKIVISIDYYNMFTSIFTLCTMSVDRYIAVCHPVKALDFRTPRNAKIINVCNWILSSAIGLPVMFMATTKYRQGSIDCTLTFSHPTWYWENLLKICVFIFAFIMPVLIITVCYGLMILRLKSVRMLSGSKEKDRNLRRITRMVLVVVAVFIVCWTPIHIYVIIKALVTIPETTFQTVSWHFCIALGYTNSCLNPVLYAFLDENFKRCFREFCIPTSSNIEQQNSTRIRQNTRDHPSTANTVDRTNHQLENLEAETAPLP

[3] = tested on: mouse vas deferens; assay: electrically stimulated mouse vas deferens (MVD) ED50; format: cell-based; conditions: ED50, inhibition of electrically induced contractions
[4] = tested on: seizure-like convulsions in mice; assay: mouse seizure-like convulsions; format: in vivo
Experimental: Mouse Seizure-Like Convulsions and antinociception: The central (CNS) effects of the compound were tested with central delta receptor mediated seizure-like convulsions and central mu opioid receptor mediated antinociceptive effects in mice. Male CD-1 mice (Charles River, Raleigh, N.C.) weighing 20-25 g were used to determine the seizure-like convulsion and antinociception activities for compounds.
They were then observed for seizure-like convulsions for one hour following the treatment. A seizure-like event was recorded if a mouse had uncontrollable clonic (or tonic/clonic) muscle movements that encompassed its entire body, usually followed by a brief cataleptic period. Catalepsy was determined by placing the animal's front paws on a horizontal bar held 2-3 inches from the cage floor. Cataleptic animals made no attempt to remove their paws.

T1 sequence (P41143 whole entry): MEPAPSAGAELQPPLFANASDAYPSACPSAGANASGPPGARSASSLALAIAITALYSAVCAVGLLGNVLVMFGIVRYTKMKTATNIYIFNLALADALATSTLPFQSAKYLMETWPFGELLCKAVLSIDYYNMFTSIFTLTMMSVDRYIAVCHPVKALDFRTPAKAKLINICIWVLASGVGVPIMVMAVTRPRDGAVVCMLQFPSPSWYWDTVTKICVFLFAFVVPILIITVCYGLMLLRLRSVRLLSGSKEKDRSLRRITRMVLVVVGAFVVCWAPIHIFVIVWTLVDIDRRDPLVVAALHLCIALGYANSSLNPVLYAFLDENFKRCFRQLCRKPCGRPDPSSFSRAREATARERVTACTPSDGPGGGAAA

SMILES	Ki [1]	Ki [2]	EC50 [3]	Seiz. ([4]; 10 mg/kg IV)	Seiz. ([4]; 20 mg/kg IV)
C=CCN1C[C@H](C)N([C@@H](c2cccc(O)c2)c2cccc(C(=O)N3CCN(Cc4ccc(C(=O)OC)cc4)CC3)c2)C[C@H]1C [Example 91, 4-(4-{3-[(R)-((2S,5R)-4-Allyl-2,5-dimethyl-piperazin-1-yl)-(3-hydroxy-phenyl)-methyl]-benzoyl}-piperazin-1-ylmethyl)-benzoic acid methyl ester]	2.7 nM	6.5 nM	23.1 nM	70% 10 mg/kg IV	
CCOC(=O)CCCCN1CCCN(C(=O)c2cccc(C(c3cccc(O)c3)N3C[C@@H](C)N(Cc4cccc(F)c4)C[C@@H]3C)c2)CC1 (stereo partly shown)	6.1 nM	15.7 nM	61.5 nM	0% 10 mg/kg IV	
C=CCN1C[C@H](C)N(C(c2cccc(O)c2)c2cccc(C(=O)N3CCCN(CCCCCC(=O)O)CC3)c2)C[C@H]1C (stereo partly shown)	5.3 nM	89.9 nM	19 nM	0% 10 mg/kg IV	
CCOC(=O)CN1CCCN(C(=O)c2cccc(C(c3cccc(O)c3)N3C[C@@H](C)N(CC4CC4)C[C@@H]3C)c2)CC1 (stereo partly shown)	1.9 nM	3.9 nM	38.9 nM		0% 20 mg/kg IV
C[C@@H]1CN([C@@H](c2cccc(O)c2)c2cccc(C(=O)N3CCN(CCCCC(=O)O)CC3)c2)[C@@H](C)CN1Cc1cccc(F)c1 [Example 88, 5-(4-{3-[(R)-((2S,5R)-4-(3-Fluorobenzyl)-2,5-dimethyl-piperazin-1-yl)-(3-hydroxy-phenyl)-methyl]-benzoyl}-piperazin-1-yl)-pentanoic acid]	16.9 nM	211 nM	6.66 nM	0% 10 mg/kg IV	
C=CCN1C[C@H](C)N([C@@H](c2cccc(O)c2)c2cccc(C(=O)N3CCN(CC(=O)O)CC3)c2)C[C@H]1C [Example 64, (4-{3-[(R)-((2S,5R)-4-Allyl-2,5-dimethyl-piperazin-1-yl)-(3-hydroxy-phenyl)-methyl]-benzoyl}-piperazin-1-yl)-acetic acid]	0.79 nM	9 nM	5.18 nM	30% 10 mg/kg IV	
C[C@@H]1CN(C(c2cccc(O)c2)c2cccc(C(=O)N3CCCN(CCCCC(=O)O)CC3)c2)[C@@H](C)CN1Cc1ccccc1 (stereo partly shown)	20.4 nM	23.5 nM	3.28 nM	0% 10 mg/kg IV	
CCOC(=O)CCCCCN1CCN(C(=O)c2cccc([C@H](c3cccc(O)c3)N3C[C@@H](C)N(Cc4ccccc4)C[C@@H]3C)c2)CC1 [Example 96, 6-(4-{3-[(R)-((2S,5R)-4-Benzyl-2,5-dimethyl-piperazin-1-yl)-(3-hydroxy-phenyl)-methyl]-benzoyl}-piperazin-1-yl)-hexanoic acid ethyl ester]	6.9 nM	2 nM	10.4 nM	60% 10 mg/kg IV	
CCOC(=O)CCCCN1CCN(C(=O)c2cccc([C@H](c3cccc(O)c3)N3C[C@@H](C)N(Cc4ccccc4)C[C@@H]3C)c2)CC1 [Example 86, 5-(4-{3-[(R)-[(2S,5R)-4-Benzyl-2,5-dimethyl-piperazin-1-yl]-(3-hydroxy-phenyl)-methyl]-benzoyl}-piperazin-1-yl)-pentanoic acid ethyl ester]	3.1 nM	9.1 nM	12.6 nM	60% 10 mg/kg IV	
C=CCN1C[C@H](C)N([C@@H](c2cccc(O)c2)c2cccc(C(=O)N3CCC[C@H]3C(=O)OC)c2)C[C@H]1C [Example 143, 1-{3-[(R)-((2S,5R)-4-Allyl-2,5-dimethyl-piperazin-1-yl)-(3-hydroxy-phenyl)-methyl]-benzoyl}-pyrrolidine-2-carboxylic acid (S)-methyl ester]	1.5 nM	0.5 nM	1.79 nM	10% 10 mg/kg IV	
CCOC(=O)CCCN1CCCN(C(=O)c2cccc(C(c3cccc(O)c3)N3C[C@@H](C)N(Cc4ccccc4)C[C@@H]3C)c2)CC1 (stereo partly shown)	50.1 nM	1.2 nM	10.6 nM	30% 10 mg/kg IV	
C=CCN1C[C@H](C)N([C@@H](c2cccc(O)c2)c2cccc(C(=O)N3CCN(CCC(=O)O)CC3)c2)C[C@H]1C [Example 73, 3-(4-{3-[(R)-((2S,5R)-4-Allyl-2,5-dimethyl-piperazin-1-yl)-(3-hydroxy-phenyl)-methyl]-benzoyl}-piperazin-1-yl)-propionic acid]	2.6 nM	17.1 nM	2.28 nM	0% 10 mg/kg IV	
C[C@@H]1CN(C(c2cccc(O)c2)c2cccc(C(=O)N3CCCN(CCCCC(=O)O)CC3)c2)[C@@H](C)CN1Cc1cccc(F)c1 (stereo partly shown)	35.4 nM	34.8 nM	14.7 nM	0% 10 mg/kg IV	
C=CCN1C[C@H](C)N([C@@H](c2cccc(O)c2)c2cccc(C(=O)N3CCN(CCC(=O)OCC)CC3)c2)C[C@H]1C [Example 72, 3-(4-{3-[(R)-((2S,5R)-4-Allyl-2,5-dimethyl-piperazin-1-yl)-(3-hydroxy-phenyl)-methyl]-benzoyl}-piperazin-1-yl)-propionic acid ethyl ester]	0.61 nM	2.4 nM	8.03 nM	20% 10 mg/kg IV	
C=CCN1C[C@H](C)N([C@@H](c2cccc(O)c2)c2cccc(C(=O)N3CCN(CC(=O)OCC)CC3)c2)C[C@H]1C [Example 63, (4-{3-[(R)-((2S,5R)-4-Allyl-2,5-dimethyl-piperazin-1-yl)-(3-hydroxy-phenyl)-methyl]-benzoyl}-piperazin-1-yl)-acetic acid ethyl ester]	0.44 nM	0.47 nM	7.71 nM	20% 10 mg/kg IV	
CCOC(=O)CCCCN1CCCN(C(=O)c2cccc(C(c3cccc(O)c3)N3C[C@@H](C)N(Cc4ccccc4)C[C@@H]3C)c2)CC1 (stereo partly shown)	2.6 nM	6.3 nM	11.1 nM	25% 10 mg/kg IV	
C[C@@H]1CN([C@@H](c2cccc(O)c2)c2cccc(C(=O)N3CCN(CCCC(=O)O)CC3)c2)[C@@H](C)CN1CC1CC1 [Example 78, 4-(4-{3-[(R)-((2S,5R)-4-Cyclopropylmethyl-2,5-dimethyl-piperazin-1-yl)-(3-hydroxy-phenyl)-methyl]-benzoyl}-piperazin-1-yl)-butyric acid]	10.2 nM	194 nM	26.6 nM	0% 10 mg/kg IV	
C=CCN1C[C@H](C)N([C@@H](c2cccc(O)c2)c2cccc(C(=O)N3CCN(CCCC(=O)OCC)CC3)c2)C[C@H]1C [Example 74, (4-{3-[(R)-((2S,5R)-4-Allyl-2,5-dimethyl-piperazin-1-yl)-(3-hydroxy-phenyl)-methyl]-benzoyl}-piperazin-1-yl)-butyric acid ethyl ester]	123 nM	1.95 nM	23.3 nM	10% 10 mg/kg IV	
CCOC(=O)CCCN1CCN(C(=O)c2cccc([C@H](c3cccc(O)c3)N3C[C@@H](C)N(Cc4ccccc4)C[C@@H]3C)c2)CC1 [Example 79, 4-(4-{3-[(R)-((2S,5R)-4-Benzyl-2,5-dimethyl-piperazin-1-yl)-(3-hydroxy-phenyl)-methyl]-benzoyl}-piperazin-1-yl)-butyric acid ethyl ester]	3.7 nM	1.3 nM	3.95 nM	80% 10 mg/kg IV	
C[C@@H]1CN([C@@H](c2cccc(O)c2)c2cccc(C(=O)N3CCN(CCCC(=O)O)CC3)c2)[C@@H](C)CN1Cc1cccc(F)c1 [Example 82, 4-(4-{3-[(R)-((2S,5R)-4-(3-Fluorobenzyl)-2,5-dimethyl-piperazin-1-yl)-(3-hydroxy-phenyl)-methyl]-benzoyl}-piperazin-1-yl)-butyric acid]	31.1 nM	13.8 nM	2.65 nM	0% 10 mg/kg IV	
C=CCN1C[C@H](C)N([C@@H](c2cccc(O)c2)c2cccc(C(=O)N3CCC(=CC(=O)O)CC3)c2)C[C@H]1C [Example 138, (1-{3-[(R)-((2S,5R)-4-allyl-2,5-dimethyl-1-piperazinyl)(3-hydroxyphenyl)methyl]-benzoyl}-4-piperidinylidene)acetic acid]	0.63 nM	7.4 nM	1.35 nM	0% 10 mg/kg IV	
C[C@@H]1CN([C@@H](c2cccc(O)c2)c2cccc(C(=O)N3CCN(CCCCCCC(=O)O)CC3)c2)[C@@H](C)CN1Cc1ccccc1 [Example 111, 7-(4-{3-[(R)-((2S,5R)-4-Benzyl-2,5-dimethyl-piperazin-1-yl)-(3-hydroxy-phenyl)-methyl]-benzoyl}-piperazin-1-yl)-heptanoic acid]	0.77 nM	8.7 nM	3.82 nM	0% 10 mg/kg IV	
C=CCN1C[C@H](C)N([C@@H](c2cccc(O)c2)c2cccc(C(=O)N(C)CC(=O)O)c2)C[C@H]1C [Example 152, ({3-[(R)-((2S,5R)-4-Allyl-2,5-dimethyl-piperazin-1-yl)-(3-hydroxy-phenyl)-methyl]-benzoyl}-methyl-amino)-acetic acid]	0.7 nM		2.36 nM	0% 10 mg/kg IV	
